Assay results taken from ChEMBL document CHEMBL1201862, “PubChem BioAssay data set” (2004).
The source made the active and inactive calls.

Assays:
[1] = HEK293T cytotoxicity, dose response, cytotoxicity control for miR-122 modulator project, cell-based, activator set, cherry-pick (AID 720690); format: functional;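 note: HEK293T human cells scored for general mammalian cytotoxicity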
[2] = miR-122 activators in hepatoma reporter cells, dose response, cell-based, Huh7 psiCHECK-miR122, Renilla luciferase, cherry-picked (AID 651956); format: functional;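 note: huh7 hepatoma cells stably carrying a psiCHECK-2 miR-122 sensor plasmid; renilla luciferase signal reporting endogenous miR-122 activity after 48 h compound exposure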
[3] = target: T1, Botulinum neurotoxin type A (Clostridium botulinum (strain Hall / ATCC 3502 / NCTC 13319 / Type A), UniProt P0DPI1); assay: High-throughput multiplex microsphere dose response for inhibitors of toxin protease, specifically Botulinum neurotoxin light chain A protease, compounds from Powder Set 01.; format: functional, Clostridium botulinum A str. ATCC 3502; conditions: read-out: EC50_MICROM
T1 sequence (P0DPI1 2-448 limits assumed): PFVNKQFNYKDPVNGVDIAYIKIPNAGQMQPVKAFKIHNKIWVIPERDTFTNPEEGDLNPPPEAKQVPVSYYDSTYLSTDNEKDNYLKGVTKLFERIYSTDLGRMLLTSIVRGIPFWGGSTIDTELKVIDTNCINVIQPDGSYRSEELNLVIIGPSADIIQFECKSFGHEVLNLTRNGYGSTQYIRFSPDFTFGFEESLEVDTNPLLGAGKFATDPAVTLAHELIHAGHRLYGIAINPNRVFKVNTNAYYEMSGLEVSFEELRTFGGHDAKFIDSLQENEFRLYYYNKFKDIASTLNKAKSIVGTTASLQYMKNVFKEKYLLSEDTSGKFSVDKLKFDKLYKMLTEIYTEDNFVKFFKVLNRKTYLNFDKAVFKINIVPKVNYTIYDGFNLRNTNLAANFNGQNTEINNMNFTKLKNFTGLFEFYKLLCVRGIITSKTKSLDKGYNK

[4] = target: T1, Botulinum neurotoxin type A; assay: Confirmatory FRET assay using full length substrates for Botulinum neurotoxin light chain A protease, with Powder Set01.; format: functional
[5] = MITF: Counter assay: A375 proliferation Measured in Cell-Based System Using Plate Reader - 2084-03_Inhibitor_Dose_DryPowder_Activity_Set8.; format: functional; conditions: A-375
[6] = MITF Orthogonal Assay: SK-MEL-5 CTG Assay Measured in Cell-Based System Using Plate Reader - 2084-02_Inhibitor_Dose_DryPowder_Activity_Set7.; format: functional
[7] = NIH3T3 fibroblast cytotoxicity, dose response, cytotoxicity control for PglD inhibitor project, cell-based, CellTiter-Glo luminescence, dry powder (AID 652044); format: functional
HeLa = assay: HeLa cell cytotoxicity, dose response, cytotoxicity control, ATP luminescence, cherry-pick samples (AID 687004); format: functional, cell-based; conditions: Homo sapiens
[8] = LMP1-driven NF-kB reporter inhibition, dose response, cell-based, luciferase reporter, luminescence, dry powder, set 2 (AID 624376); format: functional
[9] = Late stage assay provider results from the probe development effort to identify selective inhibitors of heat shock protein 90 (HSP90): Absorbance-based cell proliferation assay in MCF7 cells.; format: functional
[10] = Late stage assay provider results from the probe development effort to identify selective inhibitors of heat shock protein 90 (HSP90): Absorbance-based cell proliferation assay in SKBR3 cells.; format: functional; conditions: SK-BR-3
[11] = HEK293 cell cytotoxicity, dose response, cytotoxicity control, cherry-picks, set 5 (AID 1053117); format: functional, cell-based
[12] = target: Potassium channel subfamily K member 9 (Homo sapiens, UniProt Q9NPC2); assay: TASK3 (KCNK9) channel inhibitors, thallium flux, SAR follow-up, selectivity assay for TASK1 inhibitor project, cell-based, FluxOR thallium flux, concentration-response (AID 652211); format: functional;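 note: potency is for inhibitors of the channel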
Potassium channel subfamily K member 9, sequence (Q9NPC2 whole entry): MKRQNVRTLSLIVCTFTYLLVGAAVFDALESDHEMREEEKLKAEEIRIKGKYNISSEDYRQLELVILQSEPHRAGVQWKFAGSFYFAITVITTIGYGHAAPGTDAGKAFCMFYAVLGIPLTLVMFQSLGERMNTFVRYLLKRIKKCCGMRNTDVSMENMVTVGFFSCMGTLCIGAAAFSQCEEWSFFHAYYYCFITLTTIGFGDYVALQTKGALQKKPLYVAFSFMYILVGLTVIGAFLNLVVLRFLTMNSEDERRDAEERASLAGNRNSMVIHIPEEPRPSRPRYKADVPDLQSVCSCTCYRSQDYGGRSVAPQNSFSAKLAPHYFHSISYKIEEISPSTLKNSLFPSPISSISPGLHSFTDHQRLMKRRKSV

CN1C(=O)c2cc(NC(=O)c3cccc(F)c3)ccc2OC[C@H]2O[C@H](CC(=O)N3CCc4ccccc4C3)CC[C@@H]21
AC50 [1]: 31.3 µM (active)
AC50 [2]: 18.8 µM (active)

O=[N+]([O-])c1ccc([N+]2=N[C-](c3ccccc3)CC2c2ccccc2)cc1 (stereo not drawn)
EC50 [3]: 0.3 µM (active)
EC50 [4]: 1.1 µM (active)

O=C1C=C(NCc2ccccc2)C(=O)c2ccccc21
AC50 [5]: > 70 µM (inactive)
AC50 [6]: 7.74 µM (active)

CC(C)NC(=O)N(C)C[C@@H]1Oc2ccc(NC(=O)Cc3cn(C)c4ccccc34)cc2C(=O)N([C@H](C)CO)C[C@H]1C
AC50 [7]: > 47 µM (inactive)

N#Cc1ccc(-c2ccc3c(c2)[C@H]2[C@H](CCN2C(=O)Cc2ccccc2)[C@@H](CO)N3)cc1
AC50 (HeLa): 28.5 µM (active)

C[C@H](NC(=O)C[C@H]1C[C@@H]2c3cc(NC(=O)c4cccnc4)ccc3O[C@@H]2[C@@H](CO)O1)c1ccccc1
AbsAC35 [8]: 164.54 µM

COc1ccc(N/C=C2/C=C(Br)C(=O)OC2=O)c(OC)c1
IC50 [9]: 3.8 µM (active)
IC50 [10]: 11.4 µM (inactive)

CN(C)C(=O)c1ccc(-c2ccc3c(c2)[C@@H]2[C@@H](CCN2C(=O)c2ccc(F)cc2)[C@H](CO)N3C)cc1
AC50 [11]: > 52 µM (inactive)

COc1cccc(C(=O)Nc2cccc(NC(=O)c3cccc(C)c3)c2)c1
IC50 [12]: 29.3 µM (active)
